Literature values as cited in patent US20240285563A1, “USE OF (S)-3-AMINO-4-(DIFLUOROMETHYLENYL) CYCLOPENT-1-ENE-1-CARBOXYLIC ACID IN THE TREATMENT OF RHEUMATOID ARTHRITIS” (Ovid Therapeutics Inc., priority 2023, published 2024).

Legend:
[1] = molecular target: aspartate aminotransferase (Asp-AT)
OAT = molecular target: T1, OAT (Homo sapiens, UniProt P04181)
T1 sequence (P04181 36-439 limits assumed): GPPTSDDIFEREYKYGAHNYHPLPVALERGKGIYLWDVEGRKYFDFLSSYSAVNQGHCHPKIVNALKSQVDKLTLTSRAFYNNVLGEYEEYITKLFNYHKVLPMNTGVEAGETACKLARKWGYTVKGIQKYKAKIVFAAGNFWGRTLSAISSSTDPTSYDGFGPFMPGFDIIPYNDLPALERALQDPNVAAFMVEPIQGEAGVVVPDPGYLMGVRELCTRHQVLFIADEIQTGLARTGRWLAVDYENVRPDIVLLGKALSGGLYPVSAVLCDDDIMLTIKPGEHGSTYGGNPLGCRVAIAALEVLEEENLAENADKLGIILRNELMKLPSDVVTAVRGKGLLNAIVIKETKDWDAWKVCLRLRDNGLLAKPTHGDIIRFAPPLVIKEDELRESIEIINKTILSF

[2] = molecular target: alanine aminotransferase (Ala-AT)

Compound	IC50 ([1]; very weak reversible inhibitor)	Ki (OAT)	times more efficient an inactivator of OAT than CPP-115 (OAT; ratio of kinact/KI versus CPP-115)	IC50 ([2]; very weak reversible inhibitor)	inactivation or inhibition of off-target enzyme [1]	inactivation or inhibition of off-target enzyme [2]
N[C@H]1C=C(C(=O)O)CC1=C(F)F [OV329, (S)-3-amino-4-(difluoromethylenyl)cyclopent-1-ene-1-carboxylic acid]	> 4000 µM	3.3 µM	9.0 times	> 4000 µM		
N[C@H]1C[C@@H](C(=O)O)CC1=C(F)F [CPP-115, (1S,3S)-3-amino+difluoromethylenyl-1-cyclopentanoic acid, reference compound]		116 µM			not to inactivate or inhibit	not to inactivate or inhibit
